# Reference: ChEMBL document CHEMBL1201862, “PubChem BioAssay data set” (2004)
# Calls of active or inactive are those of the source.
# Assays:
# Protein skinhead-1 = biological target: T1, Protein skinhead-1 (Caenorhabditis elegans, UniProt P34707); type: functional
# T1 sequence (P34707 whole entry): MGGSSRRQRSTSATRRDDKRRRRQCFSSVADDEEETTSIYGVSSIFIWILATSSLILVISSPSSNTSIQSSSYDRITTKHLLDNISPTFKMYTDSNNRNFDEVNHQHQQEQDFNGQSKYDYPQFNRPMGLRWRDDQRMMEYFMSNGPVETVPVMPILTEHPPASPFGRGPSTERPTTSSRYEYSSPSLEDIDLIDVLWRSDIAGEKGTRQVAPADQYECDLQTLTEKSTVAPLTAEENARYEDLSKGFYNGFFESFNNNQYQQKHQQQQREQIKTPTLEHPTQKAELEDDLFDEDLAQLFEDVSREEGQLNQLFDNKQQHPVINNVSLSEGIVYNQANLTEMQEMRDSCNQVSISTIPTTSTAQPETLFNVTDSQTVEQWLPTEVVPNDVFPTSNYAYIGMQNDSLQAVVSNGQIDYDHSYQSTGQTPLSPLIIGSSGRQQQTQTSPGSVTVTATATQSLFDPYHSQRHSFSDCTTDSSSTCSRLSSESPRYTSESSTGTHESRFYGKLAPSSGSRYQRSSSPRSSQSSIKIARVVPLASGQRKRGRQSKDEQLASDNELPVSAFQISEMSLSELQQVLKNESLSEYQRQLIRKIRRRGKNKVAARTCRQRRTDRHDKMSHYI
# [1] = biological target: FAD-linked sulfhydryl oxidase ALR (Homo sapiens, UniProt P55789); assay: ALR-catalysed DTT oxidation blockers – biochemical, H2O2 detection, luminescence, cherry-pick, dose response (AID 493248)
# [2] = luciferase reporter signal suppression in cells – H4 neuroglioma cells, luminescence, dose response (AID 1990); type: functional, cell-based
# [3] = Luminescence Cell-Based Dose Response HTS to Identify Inhibitors of 5'UTR Stem-Loop Driven Prion Protein mRNA Translation in H4 Neuroglioblastoma Cells. [Related pubchem assays: 1827 (Project Summary), 1813 (Primary HTS)]; type: functional
# [4] = alpha-synuclein stem-loop luciferase translation blockers – H4 neuroglioma cells, luminescence, confirmation (AID 1988); type: functional, cell-based
# [5] = test system: Streptococcus sp. 'group A'; assay: Streptococcus pyogenes SK(-)GAS viability under kanamycin – luminescence, BacTiterGlo, confirmation, counter-screen for streptokinase expression inhibitor project, dose response (AID 1900); type: functional, organism-based
# Streptokinase A = biological target: T2, Streptokinase A (Streptococcus pyogenes serotype M1, UniProt P10520); assay: viability-normalized secreted streptokinase activity reduction – plasminogen activation absorbance, OD405, dose response (AID 1914); type: functional, Streptococcus pyogenes M1 GAS;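 also: secreted streptokinase activity via plasminogen activation per viability signal from cell pellet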
# T2 sequence (P10520 whole entry): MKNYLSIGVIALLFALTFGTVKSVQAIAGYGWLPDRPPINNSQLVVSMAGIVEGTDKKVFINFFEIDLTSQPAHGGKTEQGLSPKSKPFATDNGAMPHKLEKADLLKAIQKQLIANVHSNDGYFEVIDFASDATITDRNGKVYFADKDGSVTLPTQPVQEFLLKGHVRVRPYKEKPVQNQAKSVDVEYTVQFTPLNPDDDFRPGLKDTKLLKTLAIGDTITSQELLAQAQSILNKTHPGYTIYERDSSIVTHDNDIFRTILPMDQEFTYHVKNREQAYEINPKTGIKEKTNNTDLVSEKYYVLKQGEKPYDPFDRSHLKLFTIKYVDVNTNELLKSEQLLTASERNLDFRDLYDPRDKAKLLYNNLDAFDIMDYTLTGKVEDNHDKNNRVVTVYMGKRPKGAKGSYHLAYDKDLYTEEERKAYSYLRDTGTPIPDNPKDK
# Streptococcus = assay: GAS UMAA2166 growth inhibition – luminescence, BacTiterGlo, counter-screen for streptokinase expression inhibitor project, dose response (AID 1915); type: functional, organism-based;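 also: potency for reduction of bacterial viability or growth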
# [6] = Luminescence Cell-Based Dose Retest to Confirm Inhibitors of Cancer Stem Cells. [Related pubchem assays (depositor defined):AID2717, AID2721]; type: functional; settings: Homo sapiens
# [7] = Trypanosoma cruzi growth suppression in host cells – NIH3T3 host cells, beta-gal luminescence, confirmation (AID 2044); type: functional, cell-based;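 also: intracellular parasites grown in NIH/3T3 mouse fibroblasts as host cells; luminescent beta-galactosidase reporter signal from transgenic T. cruzi replicating inside host cells; inhibitors lower the luminescence signal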
# [8] = NIH3T3 cell viability loss – ATP luminescence, mouse fibroblasts, counter-screen, dose response (AID 2010); type: functional, cell-based;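 also: cells exposed to compound for about 90 hours before reading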
# [9] = microbe, parasite or virus in culture; type: functional; settings: Mycobacterium tuberculosis
# Cytochrome P450 2C19 = Cytochrome P450 2C19 (Homo sapiens, UniProt P33261); assay: Cytochrome panel assay with activity outcomes. Panel member name: p450-cyp2c19 Compounds with AC50 equal or less than 10 uM are considered active; type: functional; settings: read-out: AC50
# [10] = loss of viability in HepG2 cells – cell-based, CellTiter-Glo, cherry-picked, cytotoxicity control for Shn3 inhibitor project, dose response (AID 624134); type: functional
# [11] = viability of uninfected HEp-2 cells – cell-based, HTS, cytotoxicity control for RSV inhibitor project, dose response (AID 2410); type: functional; settings: human respiratory syncytial virus
# [12] = biological target: T3, Rac GTPase-activating protein 1 (Homo sapiens, UniProt Q9H0H5); assay: blockers of MgcRacGAP-driven Rac1 GTP hydrolysis – biochemical, ADP Hunter fluorescence, primary and confirmatory, confirmation (AID 624330); type: functional
# T3 sequence (Q9H0H5 whole entry): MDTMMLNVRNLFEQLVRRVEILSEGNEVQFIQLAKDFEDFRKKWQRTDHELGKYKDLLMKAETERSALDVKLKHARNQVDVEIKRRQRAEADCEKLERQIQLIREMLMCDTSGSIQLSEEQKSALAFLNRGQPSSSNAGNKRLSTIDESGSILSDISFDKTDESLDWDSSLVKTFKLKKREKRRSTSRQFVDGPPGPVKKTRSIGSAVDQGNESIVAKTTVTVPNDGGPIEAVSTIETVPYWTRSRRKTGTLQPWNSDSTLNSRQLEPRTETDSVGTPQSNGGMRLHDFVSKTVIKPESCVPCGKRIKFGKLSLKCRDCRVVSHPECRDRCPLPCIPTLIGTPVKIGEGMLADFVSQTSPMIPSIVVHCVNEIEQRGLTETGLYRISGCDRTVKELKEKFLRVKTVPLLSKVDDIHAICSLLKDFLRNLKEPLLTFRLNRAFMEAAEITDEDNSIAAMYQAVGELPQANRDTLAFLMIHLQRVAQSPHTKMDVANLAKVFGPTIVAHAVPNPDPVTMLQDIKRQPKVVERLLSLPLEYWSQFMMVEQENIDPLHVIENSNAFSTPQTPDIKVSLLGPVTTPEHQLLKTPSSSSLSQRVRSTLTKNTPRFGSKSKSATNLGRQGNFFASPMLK
# [13] = reduction of Shn3 3'UTR-driven luciferase in osteoblasts – cell-based, Clone20 osteoblasts, firefly luciferase, cherry-picked, dose response (AID 624132); type: functional;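 also: firefly luciferase luminescence from reporter carrying the Shn3 3'UTR in osteoblasts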
# FAD-linked sulfhydryl oxidase ALR, sequence (P55789 whole entry): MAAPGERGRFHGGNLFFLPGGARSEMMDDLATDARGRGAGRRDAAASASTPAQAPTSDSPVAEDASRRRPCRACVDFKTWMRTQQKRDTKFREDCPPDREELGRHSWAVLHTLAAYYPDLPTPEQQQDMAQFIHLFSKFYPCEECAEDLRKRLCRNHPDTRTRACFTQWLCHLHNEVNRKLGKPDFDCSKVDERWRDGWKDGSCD
# Cytochrome P450 2C19, sequence (P33261 whole entry): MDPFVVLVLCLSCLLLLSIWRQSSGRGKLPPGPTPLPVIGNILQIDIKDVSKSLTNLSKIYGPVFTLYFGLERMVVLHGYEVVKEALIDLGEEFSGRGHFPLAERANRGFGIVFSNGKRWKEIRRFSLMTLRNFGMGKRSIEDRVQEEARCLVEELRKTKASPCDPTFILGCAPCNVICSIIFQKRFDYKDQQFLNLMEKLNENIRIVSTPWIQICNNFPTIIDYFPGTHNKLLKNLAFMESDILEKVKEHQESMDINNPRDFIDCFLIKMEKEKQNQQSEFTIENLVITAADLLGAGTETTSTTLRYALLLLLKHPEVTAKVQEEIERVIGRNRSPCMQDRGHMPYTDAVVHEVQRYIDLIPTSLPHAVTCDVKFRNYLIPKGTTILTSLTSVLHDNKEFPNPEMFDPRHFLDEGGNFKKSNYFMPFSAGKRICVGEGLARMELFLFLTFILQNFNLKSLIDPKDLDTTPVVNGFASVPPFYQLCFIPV
smiles,measurement,setting,value
CC1CN(S(=O)(=O)c2cccc(C(=O)OCC(=O)Nc3ccc4c(c3)OCO4)c2)CC(C)O1 (stereo not drawn),IC50,Protein skinhead-1,> 100 µM (inactive)
O=C(Nc1nccs1)c1ccc(-c2ccc(F)cc2)o1,IC50,Protein skinhead-1,> 100 µM (inactive)
COc1ccc2[nH]c(C)c(-c3csc(N)n3)c2c1,AC50,[1],5.23 µM (active)
CCOC(=O)c1c(C)cc(C)n2c1nc1ccccc12,IC50,Protein skinhead-1,> 100 µM (inactive)
Cc1ccc(-c2nc(-c3cccnc3)sc2CC(=O)Nc2ccc(C)c(Cl)c2)cc1,EC50,[2],> 120 µM (not active)
same,EC50,[3],0.3 µM (active)
same,EC50,[4],> 120 µM (not active)
O=[N+]([O-])c1cccnc1N1CCC(c2cc(-c3ccc(Cl)cc3Cl)[nH]n2)CC1,EC50,[5],2.31 µM (active)
same,EC50,Streptokinase A,4.61 µM (active)
same,EC50,Streptococcus,13.4 µM (active)
same,AC50,[6],4.74 µM (active)
O=C(COC(=O)c1c2c(nc3ccccc13)/C(=C\c1cccs1)CCC2)Nc1ccccc1,EC50,[7],1.9 µM (active)
same,EC50,[8],> 60 µM (inconclusive)
same,AC50,[6],1.54 µM (active)
COc1ccc(Cc2nnc(NC(=O)c3ccc(OC)c(OC)c3)s2)cc1OC,EC50,[2],> 120 µM (not active)
same,EC50,[3],> 120 µM (not active)
same,EC50,[4],> 120 µM (not active)
Cc1cc(C)c2oc(-c3ccc(C)c(NC(=S)NC(=O)/C=C/c4ccco4)c3)nc2c1,CC50,[9],> 40 µM (active)
CCN(CC)CCOC(=O)c1ccc(NC(=O)CCCN2C(=O)/C(=C\c3cccs3)SC2=S)cc1,IC50,Protein skinhead-1,> 100 µM (inactive)
CCCCCNCC(=O)Nc1cccc(C(=O)Nc2cccc(C(F)(F)F)c2)c1,AC50,[6],9.98 µM (active)
O=C1/C(=C\c2cc(Br)cc(Br)c2O)SC(=S)N1Cc1ccccc1,AC50,[6],0.894 µM (active)
Cc1ccccc1CS(=O)(=O)c1ccc(C(=O)N2CCOCC2)cc1[N+](=O)[O-],EC50,[2],> 120 µM (not active)
same,EC50,[3],> 120 µM (not active)
same,EC50,[4],> 120 µM (not active)
N#Cc1c2n(c3c(S)ncnc13)CCCCC2,AC50,[1],1.65 µM (active)
same,AC50,Cytochrome P450 2C19,25.1 µM (inconclusive)
CCOC(=O)c1c(-c2cccs2)csc1NC(=O)CN1CC(C)OC(C)C1 (stereo not drawn),IC50,Protein skinhead-1,> 100 µM (inactive)
Cc1ccc(-c2ccc(CCC(=O)O)n2NC(=O)c2cccs2)cc1,AC50,[1],8.15 µM (active)
COCCNc1nnnc2c1sc1nc(N3CCOCC3)c3c(c12)CC(C)(C)OC3,EC50,[2],15.8 µM (active)
same,EC50,[3],> 120 µM (not active)
same,EC50,[4],> 120 µM (not active)
O=C(C[C@@H]1C/C=C\C[C@H](NC(=O)OCC2c3ccccc3-c3ccccc32)C(=O)OC[C@H]2CCCN2C1=O)N[C@@H](CO)Cc1ccccc1,CC50,[9],> 40 µM (active)
N#C/C(=C\c1ccco1)c1nc2ccccc2s1,IC50,Protein skinhead-1,> 100 µM (inactive)
COc1ccc(C(=O)NC(=S)N2CCN(c3ccccc3OC)CC2)cc1OC,EC50,[2],> 120 µM (not active)
same,EC50,[3],> 120 µM (not active)
same,EC50,[4],> 120 µM (not active)
O=c1c2ccccc2nnn1Cc1ccc(Br)cc1,IC50,Protein skinhead-1,87.8 µM (inactive)
CCOc1ccc(C2c3[nH]c4ccccc4c3C[C@H]3C(=O)N(C4CCN(Cc5ccccc5)CC4)CC(=O)N23)cc1OC (stereo partly drawn),CC50,[9],38.9 µM (active)
CC(C)c1nc2scc(-c3ccc(Cl)cc3)c2c(=O)n1N,CC50,[9],> 40 µM (active)
N#Cc1ccc(NCCc2ccccn2)c([N+](=O)[O-])c1,EC50,[2],23.7 µM (active)
same,EC50,[3],> 120 µM (not active)
same,EC50,[4],> 120 µM (not active)
Cc1cc(C)nc(NC(=O)/C=C/c2cccs2)c1,AC50,[6],6.68 µM (active)
COc1ccccc1C1CCN(Cc2ccc3ccccc3c2)CC1,EC50,[7],1.2 µM (active)
same,CC50,[9],> 40 µM (active)
same,EC50,[8],> 60 µM (not active)
COc1ccccc1-n1c(SCC(=O)Nc2cc(C)on2)nc2c(c1=O)SCC2,AC50,[10],> 70 µM (inactive)
CC(C)Cc1nc2oc3c(N4CCN(CCO)CC4)ncnc3c2c2c1CCCC2,CC50,[9],33.8 µM (active)
O=[N+]([O-])c1cc(-c2cnc3ccccc3n2)ccc1Oc1ccc(Cl)cc1,AC50,[6],0.628 µM (active)
Cc1onc(-c2c(Cl)cccc2Cl)c1C(=O)NNc1ccccc1,AC50,[6],1.44 µM (active)
CCOC(=O)Nc1sc(C(=O)N(C)C)c(C)c1C(=O)OCC,EC50,[2],23.9 µM (active)
same,EC50,[3],> 120 µM (not active)
same,EC50,[4],76.5 µM (active)
CC1(C)Cc2nc3[nH]nc(N)c3cc2CO1,AC50,[1],4.26 µM (active)
COn1c(-c2ccc(Cl)cc2)nc2ccc(Cl)cc21,CC50,[11],35.3 µM (active)
same,IC50,Protein skinhead-1,10.8 µM (active)
CC(=O)N1CCN(c2ccc(NCc3cccc(C)c3)cc2)CC1,AC50,[1],0.787 µM (active)
same,IC50,[12],9.89 µM (active)
CN1C(=O)c2ccccc2NC(=O)C1Cc1ccccc1 (stereo not drawn),AC50,[1],3.26 µM (active)
CC(=O)Nc1ccc(N2C(=O)CSC2c2ccccc2)cc1 (stereo not drawn),AC50,[1],0.025 µM (active)
CCCNC(=O)c1onc(CSc2ccc(Cl)cc2)c1C(=O)NCCC(C)C,AC50,[6],1.93 µM (active)
O=C(O)CCCN1C(=O)c2ccccc2Sc2ncccc21,IC50,Protein skinhead-1,> 100 µM (inactive)
CC(=O)Nc1ccc(S(=O)(=O)N(C)CC(=O)NNC(=O)c2cccs2)cc1,IC50,Protein skinhead-1,> 100 µM (inactive)
CC(C)c1ccc(Oc2cccc3c2S(=O)(=O)N(C2CCCC2)CC(COCc2ccccc2)O3)cc1 (stereo not drawn),AC50,[13],15.5 µM (active)
same,AC50,[10],> 70 µM (inactive)
COc1ccc(OC)c(NC(=O)c2cc(-c3cc(F)ccc3OCC3CCCO3)[nH]n2)c1 (stereo not drawn),AC50,[13],10.5 µM (active)
O=c1/c(=C/c2ccc(O)cc2)sc2n1CCCN=2,AC50,[1],1.16 µM (active)
same,IC50,[12],20.1 µM (active)
CCNc1nc(NCC)nc(N/N=C/c2ccc([N+](=O)[O-])o2)n1,CC50,[9],39 µM (active)
Cc1ccc(N/N=C2/CCCNC2=O)cc1,AC50,[1],2.66 µM (active)
CC1=CC(C)[C@H](/C=N/n2c(=O)[nH]c3c([nH]c4ccc(Br)cc43)c2=O)C(C)C1 (stereo partly drawn),EC50,[7],2.06 µM (active)
same,EC50,[8],> 60 µM (not active)
same,AC50,[6],0.876 µM (active)
